Measured values from patent US12371454B2, “Cyclic peptide compound having Kras inhibitory action” (priority 2019, dated 2025).
Starred links: 1 amine or outer side, 2 acyl side, 3 side chain; linkers in the order of their positions; H or OH if unused. Positions of bridges follow the written chain, without caps; N, C: chain ends. Non-standard residues stand in square brackets, D forms with d. Residues, ends and D or L forms follow the SMILES beside them. *: point of attachment. hPhe(3,5-F2-4-CF3) = N[C@@H](CCc1cc(F)c(C(F)(F)F)c(F)c1)C(=O)O; hPhe(3-Cl-4-CF3) = N[C@@H](CCc1ccc(C(F)(F)F)c(Cl)c1)C(=O)O; NMePhe(4-CF3) = CN[C@@H](Cc1ccc(C(F)(F)F)cc1)C(=O)O; X50 = O=C([C@H](Cc1cc(F)cc(Br)c1)N[*:1])[*:2]; NEtPhe(4-Me) = CCN[C@@H](Cc1ccc(C)cc1)C(=O)O; NMePhe(4-Cl) = CN[C@@H](Cc1ccc(Cl)cc1)C(=O)O; NMePhe(4-Me) = CN[C@@H](Cc1ccc(C)cc1)C(=O)O; NMedβ3hAla = C[C@H](CC(=O)[*:2])N(C)[*:1]; Phe(3-Br) = N[C@@H](Cc1cccc(Br)c1)C(=O)O; NMeGly(cPent) = CN[C@H](C(=O)O)C1CCCC1; NMeY = CN[C@@H](Cc1ccc(O)cc1)C(=O)O; NMeCha = CN[C@@H](CC1CCCCC1)C(=O)O; NMeD = CN[C@@H](CC(=O)O)C(=O)O; NMeL = CN[C@@H](CC(C)C)C(=O)O; NMeAbu = CC[C@H](NC)C(=O)O; Morpholide = C1CN(*)CCO1; NMeA = CN[C@@H](C)C(=O)O; NMeAib = CNC(C)(C)C(=O)O; Nle = CCCC[C@H](N)C(=O)O; Piperidide = C1CCN(*)CC1; dNMeA = CN[C@H](C)C(=O)O; Ac5c = NC1(C(=O)O)CCCC1; Aze = O=C(O)[C@@H]1CCN1; Sar = CNCC(=O)O

target: T1, Kras and SOS1 (biotin-tagged human Kras loaded with GDP, His-tagged human SOS1) (Homo sapiens, UniProt P01116, G12D); experiment: Protein-protein interaction inhibition between Kras and SOS1 (KrasGl2D-SOS PPI) using AlphaScreen; assay type: binding; details: AlphaScreen; biotin-tagged human Kras loaded with GDP, His-tagged human SOS1; read-out: KRAS G12D-SOS PPI IC50
T1 construct: made in house; host or cells: E. coli (stated for Kras only)
In short: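 AlphaScreen format: Ni donor beads capture His-SOS1, streptavidin acceptor beads capture biotinylated Kras (E. coli-expressed, GDP-loaded post-purification). Excite 680 nm, read 520-620 nm.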

T1 sequence (P01116 1-188 isoform P01116-2 G12D): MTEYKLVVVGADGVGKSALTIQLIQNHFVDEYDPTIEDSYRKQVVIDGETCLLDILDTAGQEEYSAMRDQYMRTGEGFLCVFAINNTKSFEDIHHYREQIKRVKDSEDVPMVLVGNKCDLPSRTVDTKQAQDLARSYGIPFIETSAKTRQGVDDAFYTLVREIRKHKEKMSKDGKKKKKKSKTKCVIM

Row | Structure (SMILES) | IC50 [nM]
1 | CC[C@H](C)[C@@H]1NC(=O)[C@H](CC(C)C)N(C)C(=O)C[C@@H](C(=O)N2CCOCC2)N(C)C(=O)[C@H](C2CCCC2)N(C)C(=O)C2(CCCC2)NC(=O)[C@@H]2CCCN2C(=O)[C@H](CCc2cc(F)c(C(F)(F)F)c(F)c2)NC(=O)CN(C)C(=O)[C@H](Cc2ccc(C)cc2)N(CC)C(=O)[C@@H]2CCN2C(=O)[C@H](C)N(C)C1=O [Compound 1368] ([NMeL]I[NMeA][Aze][NEtPhe(4-Me)][Sar][hPhe(3,5-F2-4-CF3)]P[Ac5c][NMeGly(cPent)][NMeD]-Morpholide; lactam N-11) | 0.67
2 | CCCC[C@@H]1NC(=O)[C@H](Cc2cc(F)cc(Br)c2)NC(=O)CN(C)C(=O)[C@H](Cc2ccc(OC)cc2)N(C)C(=O)[C@@H]2CCN2C(=O)[C@H](C)N(C)C(=O)[C@H]([C@@H](C)CC)NC(=O)[C@H](CC)N(C)C(=O)C[C@@H](C(=O)N2CCCCC2)N(C)C(=O)[C@H](CC(C)C)NC(=O)C(C)(C)N(C)C1=O [Compound 1372] ([NMeAbu]I[NMeA][Aze][NMeY](Me)[Sar][X50][Nle][NMeAib]L[NMeD]-Piperidide; lactam N-11) | 17
3 | CC[C@H](C)[C@@H]1NC(=O)[C@H](C)N(C)C(=O)C[C@@H](C)N(C)C(=O)[C@H](CC(C)C)NC(=O)C(C)(C)N(C)C(=O)[C@H](CC(C)C)NC(=O)[C@H](CCc2ccc(C(F)(F)F)c(Cl)c2)NC(=O)CN(C)C(=O)[C@H](Cc2ccc(C)cc2)N(C)C(=O)[C@@H]2CCN2C(=O)CN(C)C1=O [Compound 1377] (cyclo([Aze][NMePhe(4-Me)][Sar][hPhe(3-Cl-4-CF3)]L[NMeAib]L[NMedβ3hAla][NMeA]I[Sar])) | 5.8
4 | CC[C@H](C)[C@@H]1NC(=O)[C@H](C)N(C)C(=O)C[C@@H](C)N(C)C(=O)[C@H](CC(C)C)NC(=O)C(C)(C)N(C)C(=O)[C@H](CC(C)C)NC(=O)[C@H](CCc2ccc(C(F)(F)F)c(Cl)c2)NC(=O)[C@@H](C)N(C)C(=O)[C@H](CC2CCCCC2)N(C)C(=O)[C@@H]2CCN2C(=O)CN(C)C1=O [Compound 1378] (cyclo([Aze][NMeCha][dNMeA][hPhe(3-Cl-4-CF3)]L[NMeAib]L[NMedβ3hAla][NMeA]I[Sar])) | 380
5 | CC[C@H](C)[C@@H]1NC(=O)[C@H](CC(C)C)N(C)C(=O)C[C@@H](C)N(C)C(=O)[C@H](CC(C)C)NC(=O)C(C)(C)N(C)C(=O)[C@H](CC(C)C)NC(=O)[C@H](CCc2ccc(C(F)(F)F)c(Cl)c2)NC(=O)CN(C)C(=O)[C@H](Cc2ccc(C)cc2)N(C)C(=O)[C@@H]2CCN2C(=O)[C@H](C)N(C)C1=O [Compound 1379] (cyclo([Aze][NMePhe(4-Me)][Sar][hPhe(3-Cl-4-CF3)]L[NMeAib]L[NMedβ3hAla][NMeL]I[NMeA])) | 64
6 | CC[C@H](C)[C@@H]1NC(=O)[C@H](C)N(C)C(=O)C[C@@H](C)N(C)C(=O)[C@H](CC(C)C)NC(=O)C(C)(C)N(C)C(=O)[C@H](CC(C)C)NC(=O)[C@H](CCc2ccc(C(F)(F)F)c(Cl)c2)NC(=O)[C@@H](C)N(C)C(=O)[C@H](Cc2ccc(C)cc2)N(C)C(=O)[C@@H]2CCN2C(=O)CN(C)C1=O [Compound 1382] (cyclo([Aze][NMePhe(4-Me)][dNMeA][hPhe(3-Cl-4-CF3)]L[NMeAib]L[NMedβ3hAla][NMeA]I[Sar])) | 230
7 | CC[C@H](C)[C@@H]1NC(=O)[C@H](C)N(C)C(=O)C[C@@H](C)N(C)C(=O)[C@H](CC(C)C)NC(=O)C(C)(C)N(C)C(=O)[C@H](CC(C)C)NC(=O)[C@H](CCc2ccc(C(F)(F)F)c(Cl)c2)NC(=O)[C@@H](C)N(C)C(=O)[C@H](Cc2ccc(C(F)(F)F)cc2)N(C)C(=O)[C@@H]2CCN2C(=O)CN(C)C1=O [Compound 1383] (cyclo([Aze][NMePhe(4-CF3)][dNMeA][hPhe(3-Cl-4-CF3)]L[NMeAib]L[NMedβ3hAla][NMeA]I[Sar])) | 130
8 | CC[C@H](C)[C@@H]1NC(=O)[C@H](CC(C)C)N(C)C(=O)C[C@@H](C)N(C)C(=O)[C@H](CC(C)C)NC(=O)C(C)(C)N(C)C(=O)[C@H](CC(C)C)NC(=O)[C@H](CCc2ccc(C(F)(F)F)c(Cl)c2)NC(=O)CN(C)C(=O)[C@H](Cc2ccc(C)cc2)N(C)C(=O)[C@@H]2CCN2C(=O)CN(C)C1=O [Compound 1386] (cyclo([Aze][NMePhe(4-Me)][Sar][hPhe(3-Cl-4-CF3)]L[NMeAib]L[NMedβ3hAla][NMeL]I[Sar])) | 10
9 | CC[C@H](C)[C@@H]1NC(=O)[C@H](C)N(C)C(=O)C[C@@H](C)N(C)C(=O)[C@H](CC(C)C)NC(=O)C(C)(C)N(C)C(=O)[C@H](CC(C)C)NC(=O)[C@H](CCc2ccc(C(F)(F)F)c(Cl)c2)NC(=O)CN(C)C(=O)[C@H](CC2CCCCC2)N(C)C(=O)[C@@H]2CCN2C(=O)CN(C)C1=O [Compound 1387] (cyclo([Aze][NMeCha][Sar][hPhe(3-Cl-4-CF3)]L[NMeAib]L[NMedβ3hAla][NMeA]I[Sar])) | 14
10 | CC[C@H](C)[C@@H]1NC(=O)[C@H](C)N(C)C(=O)C[C@@H](C)N(C)C(=O)[C@H](CC(C)C)NC(=O)C(C)(C)N(C)C(=O)[C@H](CC(C)C)NC(=O)[C@H](CCc2ccc(C(F)(F)F)c(Cl)c2)NC(=O)CN(C)C(=O)[C@H](CC2CCCCC2)N(C)C(=O)[C@@H]2CCN2C(=O)[C@H](C)N(C)C1=O [Compound 1391] (cyclo([Aze][NMeCha][Sar][hPhe(3-Cl-4-CF3)]L[NMeAib]L[NMedβ3hAla][NMeA]I[NMeA])) | 65
11 | CC[C@H](C)[C@@H]1NC(=O)[C@H](C)N(C)C(=O)C[C@@H](C)N(C)C(=O)[C@H](CC(C)C)NC(=O)C(C)(C)N(C)C(=O)[C@H](CC(C)C)NC(=O)[C@H](CCc2ccc(C(F)(F)F)c(Cl)c2)NC(=O)CN(C)C(=O)[C@H](Cc2ccc(C(F)(F)F)cc2)N(C)C(=O)[C@@H]2CCN2C(=O)CN(C)C1=O [Compound 1392] (cyclo([Aze][NMePhe(4-CF3)][Sar][hPhe(3-Cl-4-CF3)]L[NMeAib]L[NMedβ3hAla][NMeA]I[Sar])) | 28
12 | CC[C@H](C)[C@@H]1NC(=O)[C@H](CC(C)C)N(C)C(=O)C[C@@H](C)N(C)C(=O)[C@H](CC(C)C)NC(=O)C(C)(C)N(C)C(=O)[C@H](CC(C)C)NC(=O)[C@H](CCc2ccc(C(F)(F)F)c(Cl)c2)NC(=O)[C@@H](C)N(C)C(=O)[C@H](Cc2ccc(C)cc2)N(C)C(=O)[C@@H]2CCN2C(=O)CN(C)C1=O [Compound 1394] (cyclo([Aze][NMePhe(4-Me)][dNMeA][hPhe(3-Cl-4-CF3)]L[NMeAib]L[NMedβ3hAla][NMeL]I[Sar])) | 130
13 | CC[C@H](C)[C@@H]1NC(=O)[C@H](CC(C)C)N(C)C(=O)C[C@@H](C)N(C)C(=O)[C@H](CC(C)C)NC(=O)C(C)(C)N(C)C(=O)[C@H](CC(C)C)NC(=O)[C@H](CCc2ccc(C(F)(F)F)c(Cl)c2)NC(=O)[C@@H](C)N(C)C(=O)[C@H](Cc2ccc(C(F)(F)F)cc2)N(C)C(=O)[C@@H]2CCN2C(=O)CN(C)C1=O [Compound 1395] (cyclo([Aze][NMePhe(4-CF3)][dNMeA][hPhe(3-Cl-4-CF3)]L[NMeAib]L[NMedβ3hAla][NMeL]I[Sar])) | 270
14 | CC[C@H](C)[C@@H]1NC(=O)[C@H](C)N(C)C(=O)C[C@@H](C)N(C)C(=O)[C@H](CC(C)C)NC(=O)C(C)(C)N(C)C(=O)[C@H](CC(C)C)NC(=O)[C@H](CCc2ccc(C(F)(F)F)c(Cl)c2)NC(=O)CN(C)C(=O)[C@H](Cc2ccc(C(F)(F)F)cc2)N(C)C(=O)[C@@H]2CCN2C(=O)[C@H](C)N(C)C1=O [Compound 1399] (cyclo([Aze][NMePhe(4-CF3)][Sar][hPhe(3-Cl-4-CF3)]L[NMeAib]L[NMedβ3hAla][NMeA]I[NMeA])) | 70
15 | CC[C@H](C)[C@@H]1NC(=O)[C@H](CC(C)C)N(C)C(=O)C[C@@H](C)N(C)C(=O)[C@H](CC(C)C)NC(=O)C(C)(C)N(C)C(=O)[C@H](CC(C)C)NC(=O)[C@H](CCc2ccc(C(F)(F)F)c(Cl)c2)NC(=O)[C@@H](C)N(C)C(=O)[C@H](CC2CCCCC2)N(C)C(=O)[C@@H]2CCN2C(=O)CN(C)C1=O [Compound 1400] (cyclo([Aze][NMeCha][dNMeA][hPhe(3-Cl-4-CF3)]L[NMeAib]L[NMedβ3hAla][NMeL]I[Sar])) | 210
16 | CC[C@H](C)[C@@H]1NC(=O)[C@H](CC(C)C)N(C)C(=O)C[C@@H](C)N(C)C(=O)[C@H](CC(C)C)NC(=O)C(C)(C)N(C)C(=O)[C@H](CC(C)C)NC(=O)[C@H](CCc2ccc(C(F)(F)F)c(Cl)c2)NC(=O)CN(C)C(=O)[C@H](Cc2ccc(C(F)(F)F)cc2)N(C)C(=O)[C@@H]2CCN2C(=O)[C@H](C)N(C)C1=O [Compound 1401] (cyclo([Aze][NMePhe(4-CF3)][Sar][hPhe(3-Cl-4-CF3)]L[NMeAib]L[NMedβ3hAla][NMeL]I[NMeA])) | 120
17 | CC[C@H](C)[C@@H]1NC(=O)[C@H](C)N(C)C(=O)C[C@@H](C)N(C)C(=O)[C@H](CC(C)C)NC(=O)C(C)(C)N(C)C(=O)[C@H](CC(C)C)NC(=O)[C@H](CCc2ccc(C(F)(F)F)c(Cl)c2)NC(=O)CN(C)C(=O)[C@H](Cc2ccc(C)cc2)N(C)C(=O)[C@@H]2CCN2C(=O)[C@H](C)N(C)C1=O [Compound 1402] (cyclo([Aze][NMePhe(4-Me)][Sar][hPhe(3-Cl-4-CF3)]L[NMeAib]L[NMedβ3hAla][NMeA]I[NMeA])) | 57
18 | CC[C@H](C)[C@@H]1NC(=O)[C@H](CC(C)C)N(C)C(=O)C[C@@H](C)N(C)C(=O)[C@H](CC(C)C)NC(=O)C(C)(C)N(C)C(=O)[C@H](CC(C)C)NC(=O)[C@H](CCc2ccc(C(F)(F)F)c(Cl)c2)NC(=O)CN(C)C(=O)[C@H](Cc2ccc(C(F)(F)F)cc2)N(C)C(=O)[C@@H]2CCN2C(=O)CN(C)C1=O [Compound 1403] (cyclo([Aze][NMePhe(4-CF3)][Sar][hPhe(3-Cl-4-CF3)]L[NMeAib]L[NMedβ3hAla][NMeL]I[Sar])) | 32
19 | CCCC[C@@H]1NC(=O)[C@H](Cc2cccc(Br)c2)NC(=O)CN(C)C(=O)[C@H](Cc2ccc(Cl)cc2)N(C)C(=O)CN(C)C(=O)CN(C)C(=O)[C@H]([C@@H](C)CC)NC(=O)[C@H](CC(C)C)N(C)C(=O)C[C@@H](C(=O)N2CCCCC2)N(C)C(=O)[C@H](CC(C)C)NC(=O)C(C)(C)N(C)C1=O [Compound 1404] ([NMeL]I[Sar][Sar][NMePhe(4-Cl)][Sar][Phe(3-Br)][Nle][NMeAib]L[NMeD]-Piperidide; lactam N-11) | 17
